Assay results taken from US20080009418A1, “Selective Inhibitors” (Alchemia LTD., priority 2004, published 2008).

Tests used:
Conditions in all cases: compound at 10 μM
Human κ-Opioid (KOP) = target: T1, Human κ-Opioid (KOP) (Homo sapiens, UniProt P41145); assay: Radioligand binding, human κ-opioid (KOP) membranes, filtration, [3H]-Diprenorphine
T1 construct: purchased Perkin Elmer Biosignal
In short: (§1)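 Percent inhibition of radioligand binding measured on recombinant human membranes: NK1 with [125I]-Substance P, KOP with [3H]-Diprenorphine. Incubation 1 h at room temperature, then harvest onto 0.3% PEI-soaked filters, cold Tris-HCl pH 7.4 washes and scintillation counting; non-specific binding from reference ligand wells.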

Human neurokinin (NK1) = target: T2, Human neurokinin (NK1) (Homo sapiens, UniProt P25103); assay: Radioligand binding, human neurokinin NK1 membranes, filtration, [125I]-Substance P
T2 construct: purchased Perkin Elmer Biosignal
In short: as §1

[1] = target: T3, Human neuropeptide Y (NPY-Y1) (Homo sapiens, UniProt P25929); assay: Radioligand binding, human neuropeptide Y NPY-Y1 membranes, FlashPlate, [125I]-PYY
T3 construct: purchased Perkin Elmer Biosignal
T3 sequence (P25929 1-384): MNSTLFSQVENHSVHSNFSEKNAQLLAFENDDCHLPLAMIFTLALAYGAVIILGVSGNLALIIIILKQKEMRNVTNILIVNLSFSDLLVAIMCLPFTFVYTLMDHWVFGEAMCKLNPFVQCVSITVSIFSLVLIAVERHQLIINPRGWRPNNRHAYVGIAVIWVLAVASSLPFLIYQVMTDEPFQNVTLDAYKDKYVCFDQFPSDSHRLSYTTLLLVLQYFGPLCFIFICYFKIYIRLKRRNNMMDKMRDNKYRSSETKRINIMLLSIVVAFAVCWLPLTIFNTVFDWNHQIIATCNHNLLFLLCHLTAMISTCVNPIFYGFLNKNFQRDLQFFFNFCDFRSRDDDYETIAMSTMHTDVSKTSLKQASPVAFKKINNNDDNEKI
In short: (§2)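 Cloned human receptor membranes were coated onto FlashPlate wells and incubated with radioligand and compound (added from a 0.5 mM DMSO daughter plate) for 1 hour at room temperature in the dark. Scintillation counting gave percent inhibition, with DMSO defining total and reference ligand defining non-specific binding.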

Human μ-opioid (MOP) = target: T4, Human μ-opioid (MOP) (Homo sapiens, UniProt P35372); assay: Radioligand binding, human μ-opioid (MOP) membranes, FlashPlate, [3H]-Naloxone
T4 construct: purchased Perkin Elmer Biosignal
In short: as §2

[2] = target: T5, Human melanin-concentrating hormone (MCH1) (Homo sapiens, UniProt Q99705); assay: Radioligand binding, human melanin-concentrating hormone MCH1 membranes, FlashPlate, [125I]-S36057
T5 construct: purchased Perkin Elmer Biosignal
In short: as §2

Mouse urotensin (mUR2) = target: T6, Mouse urotensin (mUR2) (Mus musculus, UniProt Q8VIH9); assay: Radioligand binding, mouse urotensin mUR2 membranes, FlashPlate, [125I]-Urotensin II
T6 construct: purchased Perkin Elmer Biosignal
T6 sequence (Q8VIH9 1-385): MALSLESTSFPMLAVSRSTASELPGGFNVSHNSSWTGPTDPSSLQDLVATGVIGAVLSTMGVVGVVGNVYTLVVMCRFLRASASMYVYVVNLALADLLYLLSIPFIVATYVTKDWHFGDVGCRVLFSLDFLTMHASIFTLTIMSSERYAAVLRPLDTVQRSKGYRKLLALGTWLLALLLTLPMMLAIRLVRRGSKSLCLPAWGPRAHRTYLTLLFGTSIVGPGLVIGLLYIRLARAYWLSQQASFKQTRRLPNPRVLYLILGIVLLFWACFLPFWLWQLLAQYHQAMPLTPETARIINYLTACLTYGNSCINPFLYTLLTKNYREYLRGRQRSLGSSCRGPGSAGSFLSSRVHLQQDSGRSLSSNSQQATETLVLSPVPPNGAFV
In short: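 Cloned mouse urotensin (mUR2) receptor membranes from Perkin Elmer Biosignal were immobilized in FlashPlate microplates using a proprietary coating. Each well got 19.5 μl buffer, then 0.5 μl of DMSO, reference ligand, or compound. Adding 5 μl of [125I]-Urotensin II, diluted to 5× final concentration in binding buffer, started binding. Plates were sealed with TopSeal-A and incubated 1 hour at room temperature in the dark. Wells were counted for 30 seconds each on a TopCount after a 60-second delay, and percentage inhibition was calculated.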

Human δ-opioid (DOP) = target: T7, Human δ-opioid (DOP) (Homo sapiens, UniProt P41143); assay: Radioligand binding, human δ-opioid (DOP) membranes, FlashPlate, [3H]-Bremazocine
T7 construct: purchased Perkin Elmer Biosignal
In short: as §2

Human Melanocortin (MC3) = target: T8, Human Melanocortin (MC3) (Homo sapiens, UniProt P41968); assay: Radioligand binding, human melanocortin MC3 membranes, FlashPlate, [125I]-NDP-αMSH
T8 construct: purchased Perkin Elmer Biosignal
In short: as §2

Human opioid (ORL1) = target: T9, Human opioid (ORL1) (Homo sapiens, UniProt P41146); assay: Radioligand binding, human opioid ORL1 membranes, FlashPlate, [125I]-Nociceptin
T9 construct: purchased Perkin Elmer Biosignal
In short: as §2

Human Melanocortin (MC4) = target: T10, Human Melanocortin (MC4) (Homo sapiens, UniProt P32245); assay: Radioligand binding, human melanocortin MC4 membranes, FlashPlate, [125I]-NDP-αMSH
T10 construct: purchased Perkin Elmer Biosignal
In short: as §2

Human melanocortin (MC5) = target: T11, Human melanocortin (MC5) (Homo sapiens, UniProt P33032); assay: Radioligand binding, human melanocortin MC5 membranes, FlashPlate, [125I]-NDP-αMSH
T11 construct: purchased Perkin Elmer Biosignal
In short: as §2

T8 sequence (P41968 whole entry): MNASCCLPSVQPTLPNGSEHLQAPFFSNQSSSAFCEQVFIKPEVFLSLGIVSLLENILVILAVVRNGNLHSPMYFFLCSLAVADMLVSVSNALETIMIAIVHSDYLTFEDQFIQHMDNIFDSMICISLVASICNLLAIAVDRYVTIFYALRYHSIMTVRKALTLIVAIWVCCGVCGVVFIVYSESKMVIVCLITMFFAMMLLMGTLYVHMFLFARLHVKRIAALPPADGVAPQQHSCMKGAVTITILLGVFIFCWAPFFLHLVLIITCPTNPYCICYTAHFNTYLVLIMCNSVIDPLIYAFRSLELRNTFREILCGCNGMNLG
T11 sequence (P33032 whole entry): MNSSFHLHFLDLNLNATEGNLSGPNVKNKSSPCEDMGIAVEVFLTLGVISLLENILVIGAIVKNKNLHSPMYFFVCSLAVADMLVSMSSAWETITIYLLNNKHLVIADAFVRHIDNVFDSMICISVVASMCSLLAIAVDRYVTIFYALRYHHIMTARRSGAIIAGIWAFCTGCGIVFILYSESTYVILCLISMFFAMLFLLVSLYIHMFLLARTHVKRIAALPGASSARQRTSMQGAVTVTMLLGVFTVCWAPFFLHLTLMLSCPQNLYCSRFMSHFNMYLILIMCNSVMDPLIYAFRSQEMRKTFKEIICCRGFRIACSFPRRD
T1 sequence (P41145 whole entry): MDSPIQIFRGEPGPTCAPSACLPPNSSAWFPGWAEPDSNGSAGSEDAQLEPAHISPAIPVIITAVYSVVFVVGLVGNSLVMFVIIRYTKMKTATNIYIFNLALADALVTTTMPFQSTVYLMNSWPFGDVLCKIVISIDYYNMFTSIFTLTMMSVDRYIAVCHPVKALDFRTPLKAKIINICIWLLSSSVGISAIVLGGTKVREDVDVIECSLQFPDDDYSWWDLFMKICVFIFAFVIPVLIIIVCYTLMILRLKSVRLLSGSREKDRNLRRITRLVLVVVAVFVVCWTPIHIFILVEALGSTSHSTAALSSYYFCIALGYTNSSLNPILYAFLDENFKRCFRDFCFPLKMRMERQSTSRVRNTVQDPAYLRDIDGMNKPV
T4 sequence (P35372 whole entry): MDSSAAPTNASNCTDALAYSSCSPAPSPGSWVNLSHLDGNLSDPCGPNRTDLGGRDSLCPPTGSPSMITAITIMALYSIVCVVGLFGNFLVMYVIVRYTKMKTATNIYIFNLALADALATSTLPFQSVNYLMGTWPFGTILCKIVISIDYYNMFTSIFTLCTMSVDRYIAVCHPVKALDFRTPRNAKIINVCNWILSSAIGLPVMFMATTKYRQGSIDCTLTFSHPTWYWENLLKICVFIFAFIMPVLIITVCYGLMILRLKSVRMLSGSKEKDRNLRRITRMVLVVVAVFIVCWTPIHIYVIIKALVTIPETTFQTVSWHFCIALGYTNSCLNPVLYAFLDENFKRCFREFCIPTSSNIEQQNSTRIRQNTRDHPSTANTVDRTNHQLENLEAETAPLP
T5 sequence (Q99705 whole entry): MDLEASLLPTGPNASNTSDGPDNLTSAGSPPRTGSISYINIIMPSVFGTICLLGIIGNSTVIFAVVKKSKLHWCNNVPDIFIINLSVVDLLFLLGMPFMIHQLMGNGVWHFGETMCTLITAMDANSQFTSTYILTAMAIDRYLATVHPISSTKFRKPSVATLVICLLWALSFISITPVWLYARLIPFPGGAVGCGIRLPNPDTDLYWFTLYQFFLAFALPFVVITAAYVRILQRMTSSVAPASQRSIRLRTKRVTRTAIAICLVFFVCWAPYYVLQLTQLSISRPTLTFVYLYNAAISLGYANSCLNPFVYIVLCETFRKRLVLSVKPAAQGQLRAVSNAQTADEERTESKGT
T10 sequence (P32245 whole entry): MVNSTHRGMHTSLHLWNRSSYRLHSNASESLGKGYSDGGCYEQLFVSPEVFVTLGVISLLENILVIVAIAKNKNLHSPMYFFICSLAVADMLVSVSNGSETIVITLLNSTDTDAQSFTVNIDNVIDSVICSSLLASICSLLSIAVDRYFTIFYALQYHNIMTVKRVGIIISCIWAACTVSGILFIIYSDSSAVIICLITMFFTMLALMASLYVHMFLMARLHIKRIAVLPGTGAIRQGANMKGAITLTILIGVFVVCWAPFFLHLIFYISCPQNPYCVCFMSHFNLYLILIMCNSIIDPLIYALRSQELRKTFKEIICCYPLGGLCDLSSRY
T9 sequence (P41146 whole entry): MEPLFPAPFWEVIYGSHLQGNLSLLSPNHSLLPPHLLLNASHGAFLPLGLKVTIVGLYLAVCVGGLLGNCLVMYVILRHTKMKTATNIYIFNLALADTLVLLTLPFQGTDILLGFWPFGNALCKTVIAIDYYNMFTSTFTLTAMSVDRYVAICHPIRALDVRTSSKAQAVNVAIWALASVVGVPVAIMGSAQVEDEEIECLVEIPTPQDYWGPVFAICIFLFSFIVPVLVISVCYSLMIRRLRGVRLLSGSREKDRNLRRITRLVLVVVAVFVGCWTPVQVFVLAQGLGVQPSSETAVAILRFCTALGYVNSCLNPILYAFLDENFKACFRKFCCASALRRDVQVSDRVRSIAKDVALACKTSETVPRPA
T2 sequence (P25103 whole entry): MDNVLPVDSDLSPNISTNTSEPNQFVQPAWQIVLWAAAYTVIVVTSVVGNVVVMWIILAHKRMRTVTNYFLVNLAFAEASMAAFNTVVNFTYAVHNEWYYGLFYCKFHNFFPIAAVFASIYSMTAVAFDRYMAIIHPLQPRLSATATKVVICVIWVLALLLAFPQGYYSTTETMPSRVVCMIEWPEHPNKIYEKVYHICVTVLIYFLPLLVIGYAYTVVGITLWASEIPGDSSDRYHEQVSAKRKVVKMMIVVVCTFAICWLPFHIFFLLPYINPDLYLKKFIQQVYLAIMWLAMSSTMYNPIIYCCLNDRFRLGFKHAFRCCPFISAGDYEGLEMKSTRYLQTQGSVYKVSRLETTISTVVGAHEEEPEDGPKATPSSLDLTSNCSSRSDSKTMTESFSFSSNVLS
T7 sequence (P41143 whole entry): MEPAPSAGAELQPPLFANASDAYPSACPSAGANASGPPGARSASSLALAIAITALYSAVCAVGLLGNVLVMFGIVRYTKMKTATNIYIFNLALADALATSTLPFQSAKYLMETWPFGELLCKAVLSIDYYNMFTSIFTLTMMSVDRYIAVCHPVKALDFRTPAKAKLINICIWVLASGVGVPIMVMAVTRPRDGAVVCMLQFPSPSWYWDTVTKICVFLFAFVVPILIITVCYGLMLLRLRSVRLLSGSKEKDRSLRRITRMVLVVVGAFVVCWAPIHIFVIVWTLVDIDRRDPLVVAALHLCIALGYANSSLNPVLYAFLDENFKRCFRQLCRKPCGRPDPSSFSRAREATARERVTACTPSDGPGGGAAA

SMILES: CSC1OC(COCc2ccc3ccccc3c2)C(O)C(OCc2ccccc2)C1NC(=O)CCN (stereo not shown) [compound 261]
- A2: inhibition of radioligand binding (Human κ-Opioid (KOP); [3H]-Diprenorphine, filtration): − (“−” indicates less than 50% inhibition at 10 μM)
- A8: inhibition of radioligand binding (Human neurokinin (NK1); [125I]-Substance P, filtration): − (“−” indicates less than 50% inhibition at 10 μM)
- A9: inhibition of radioligand binding ([1]; [125I]-PYY, FlashPlate): − (“−” indicates less than 50% inhibition at 10 μM)
- A7: inhibition of radioligand binding (Human μ-opioid (MOP); [3H]-Naloxone, FlashPlate): − (“−” indicates less than 50% inhibition at 10 μM)
- A6: inhibition of radioligand binding ([2]; [125I]-S36057, FlashPlate): − (“−” indicates less than 50% inhibition at 10 μM)
- A11: inhibition of radioligand binding (Mouse urotensin (mUR2); [125I]-Urotensin II, FlashPlate): − (“−” indicates less than 50% inhibition at 10 μM)
- A1: inhibition of radioligand binding (Human δ-opioid (DOP); [3H]-Bremazocine, FlashPlate): − (“−” indicates less than 50% inhibition at 10 μM)
- A3: inhibition of radioligand binding (Human Melanocortin (MC3); [125I]-NDP-αMSH, FlashPlate): − (“−” indicates less than 50% inhibition at 10 μM)
- A10: inhibition of radioligand binding (Human opioid (ORL1); [125I]-Nociceptin, FlashPlate): − (“−” indicates less than 50% inhibition at 10 μM)
- A4: inhibition of radioligand binding (Human Melanocortin (MC4); [125I]-NDP-αMSH, FlashPlate): − (“−” indicates less than 50% inhibition at 10 μM)
- A5: inhibition of radioligand binding (Human melanocortin (MC5); [125I]-NDP-αMSH, FlashPlate): + (“+” indicates greater than 50% inhibition at 10 μM)

SMILES: NCCCC(=O)NC1C(OCc2ccccc2)OC(COCc2ccccc2)C(O)C1OCc1ccccc1 (stereo not shown) [compound 379]
- A2: inhibition of radioligand binding, human κ-opioid (KOP) (Human κ-Opioid (KOP); [3H]-Diprenorphine): − (“−” indicates less than 50% inhibition at 10 μM)
- A8: inhibition of radioligand binding, human neurokinin (NK1) (Human neurokinin (NK1); [125I]-Substance P): + (“+” indicates greater than 50% inhibition at 10 μM)
- A9: inhibition of radioligand binding, human neuropeptide Y (NPY-Y1) ([1]; [125I]-PYY): − (“−” indicates less than 50% inhibition at 10 μM)
- A7: inhibition of radioligand binding, human μ-opioid (MOP) (Human μ-opioid (MOP); [3H]-Naloxone): − (“−” indicates less than 50% inhibition at 10 μM)
- A6: inhibition of radioligand binding, human melanin-concentrating hormone (MCH1) ([2]; [125I]-S36057): − (“−” indicates less than 50% inhibition at 10 μM)
- A11: inhibition of radioligand binding, mouse urotensin (mUR2) (Mouse urotensin (mUR2); [125I]-Urotensin II): − (“−” indicates less than 50% inhibition at 10 μM)
- A1: inhibition of radioligand binding, human δ-opioid (DOP) (Human δ-opioid (DOP); [3H]-Bremazocine): − (“−” indicates less than 50% inhibition at 10 μM)
- A3: inhibition of radioligand binding, human melanocortin (MC3) (Human Melanocortin (MC3); [125I]-NDP-αMSH): − (“−” indicates less than 50% inhibition at 10 μM)
- A10: inhibition of radioligand binding, human opioid (ORL1) (Human opioid (ORL1); [125I]-Nociceptin): − (“−” indicates less than 50% inhibition at 10 μM)
- A4: inhibition of radioligand binding, human melanocortin (MC4) (Human Melanocortin (MC4); [125I]-NDP-αMSH): − (“−” indicates less than 50% inhibition at 10 μM)
- A5: inhibition of radioligand binding, human melanocortin (MC5) (Human melanocortin (MC5); [125I]-NDP-αMSH): + (“+” indicates greater than 50% inhibition at 10 μM)

SMILES: CSC1O[C@H](COCc2ccc(Cl)cc2)[C@@H](O)[C@@H](OCc2ccc(-c3ccccc3)cc2)[C@H]1NC(=O)CCNC(=N)N (stereo partly shown) [compound 291]
- A2: inhibition of radioligand binding, human κ-opioid (KOP) (Human κ-Opioid (KOP); [3H]-Diprenorphine): − (“−” indicates less than 50% inhibition at 10 μM)
- A8: inhibition of radioligand binding, human neurokinin (NK1) (Human neurokinin (NK1); [125I]-Substance P): + (“+” indicates greater than 50% inhibition at 10 μM)
- A9: inhibition of radioligand binding, human neuropeptide Y (NPY-Y1) ([1]; [125I]-PYY): − (“−” indicates less than 50% inhibition at 10 μM)
- A7: inhibition of radioligand binding, human μ-opioid (MOP) (Human μ-opioid (MOP); [3H]-Naloxone): − (“−” indicates less than 50% inhibition at 10 μM)
- A6: inhibition of radioligand binding, human melanin-concentrating hormone (MCH1) ([2]; [125I]-S36057): − (“−” indicates less than 50% inhibition at 10 μM)
- A11: inhibition of radioligand binding, mouse urotensin (mUR2) (Mouse urotensin (mUR2); [125I]-Urotensin II): − (“−” indicates less than 50% inhibition at 10 μM)
- A1: inhibition of radioligand binding, human δ-opioid (DOP) (Human δ-opioid (DOP); [3H]-Bremazocine): − (“−” indicates less than 50% inhibition at 10 μM)
- A3: inhibition of radioligand binding, human melanocortin (MC3) (Human Melanocortin (MC3); [125I]-NDP-αMSH): − (“−” indicates less than 50% inhibition at 10 μM)
- A10: inhibition of radioligand binding, human opioid (ORL1) (Human opioid (ORL1); [125I]-Nociceptin): − (“−” indicates less than 50% inhibition at 10 μM)
- A4: inhibition of radioligand binding, human melanocortin (MC4) (Human Melanocortin (MC4); [125I]-NDP-αMSH): + (“+” indicates greater than 50% inhibition at 10 μM)
- A5: inhibition of radioligand binding, human melanocortin (MC5) (Human melanocortin (MC5); [125I]-NDP-αMSH): − (“−” indicates less than 50% inhibition at 10 μM)

SMILES: COCC1OC(OCc2ccccc2)C(NC(=O)CNC(=N)N)C(OCc2ccc(-c3ccccc3)cc2)C1O (stereo not shown) [compound 183]
- A2 radioligand binding, percentage inhibition (Human κ-Opioid (KOP); [3H]-Diprenorphine): − (“−” indicates less than 50% inhibition at 10 μM)
- A8 radioligand binding, percentage inhibition (Human neurokinin (NK1); [125I]-Substance P): + (“+” indicates greater than 50% inhibition at 10 μM)
- A9 radioligand binding, percentage inhibition ([1]; [125I]-PYY): − (“−” indicates less than 50% inhibition at 10 μM)
- A7 radioligand binding, percentage inhibition (Human μ-opioid (MOP); [3H]-Naloxone): − (“−” indicates less than 50% inhibition at 10 μM)
- A6 radioligand binding, percentage inhibition ([2]; [125I]-S36057): + (“+” indicates greater than 50% inhibition at 10 μM)
- A11 radioligand binding, percentage inhibition (Mouse urotensin (mUR2); [125I]-Urotensin II): − (“−” indicates less than 50% inhibition at 10 μM)
- A1 radioligand binding, percentage inhibition (Human δ-opioid (DOP); [3H]-Bremazocine): − (“−” indicates less than 50% inhibition at 10 μM)
- A3 radioligand binding, percentage inhibition (Human Melanocortin (MC3); [125I]-NDP-αMSH): − (“−” indicates less than 50% inhibition at 10 μM)
- A10 radioligand binding, percentage inhibition (Human opioid (ORL1); [125I]-Nociceptin): − (“−” indicates less than 50% inhibition at 10 μM)
- A4 radioligand binding, percentage inhibition (Human Melanocortin (MC4); [125I]-NDP-αMSH): + (“+” indicates greater than 50% inhibition at 10 μM)
- A5 radioligand binding, percentage inhibition (Human melanocortin (MC5); [125I]-NDP-αMSH): + (“+” indicates greater than 50% inhibition at 10 μM)

SMILES: COC[C@H]1OC(OCCc2ccccc2)[C@H](NC(=O)CCNC(=N)N)[C@@H](OCc2ccc3ccccc3c2)[C@@H]1O (stereo partly shown) [compound 45]
- A2 radioligand binding inhibition (Human κ-Opioid (KOP); human κ-opioid (KOP) membranes): − (“−” indicates less than 50% inhibition at 10 μM)
- A8 radioligand binding inhibition (Human neurokinin (NK1); human neurokinin NK1 membranes): + (“+” indicates greater than 50% inhibition at 10 μM)
- A9 radioligand binding inhibition ([1]; human NPY-Y1 membranes): − (“−” indicates less than 50% inhibition at 10 μM)
- A7 radioligand binding inhibition (Human μ-opioid (MOP); human μ-opioid (MOP) membranes): − (“−” indicates less than 50% inhibition at 10 μM)
- A6 radioligand binding inhibition ([2]; human MCH1 membranes): − (“−” indicates less than 50% inhibition at 10 μM)
- A11 radioligand binding inhibition (Mouse urotensin (mUR2); mouse urotensin mUR2 membranes): − (“−” indicates less than 50% inhibition at 10 μM)
- A1 radioligand binding inhibition (Human δ-opioid (DOP); human δ-opioid (DOP) membranes): − (“−” indicates less than 50% inhibition at 10 μM)
- A3 radioligand binding inhibition (Human Melanocortin (MC3); human melanocortin MC3 membranes): − (“−” indicates less than 50% inhibition at 10 μM)
- A10 radioligand binding inhibition (Human opioid (ORL1); human ORL1 membranes): − (“−” indicates less than 50% inhibition at 10 μM)
- A4 radioligand binding inhibition (Human Melanocortin (MC4); human melanocortin MC4 membranes): + (“+” indicates greater than 50% inhibition at 10 μM)
- A5 radioligand binding inhibition (Human melanocortin (MC5); human melanocortin MC5 membranes): − (“−” indicates less than 50% inhibition at 10 μM)
